target: T1, Serine/threonine-protein kinase TBK1 (Homo sapiens, UniProt Q9UHD2); test: Time-Resolved Fluorescence-based Lanthascreen Assay: Kinase inhibition assays (10 μL) were performed at 20° C. in 384-well plate format. Compound IC50 values were determined at the apparent Km for ATP (20 μM) based on a radiometric assay (Invitrogen) using 8 or 10 point curves in duplicate. The final reaction conditions contained 400 nM fluorescein-IkBα substrate ([…]), 20 μM ATP, 2 nM or 8 nM IKKε or TBK1 kinase respectively, and 3% DMSO in kinase assay buffer consisting of 50 mM HEPES (pH 7.5), 10 mM MgCl, 1 mM EGTA, 0.01% Brij-35.Compound dilutions were prepared from 10 mM DMSO stocks by dilution into DMSO. Compound dilution series were further diluted in kinase assay buffer to give a 12% DMSO stock, the final concentration in the assay being 3% DMSO.The kinase phosphorylation assay was initiated by the addition of the kinase and the reaction was allowed to proceed for 1 h or 2.5 h for IKKε and TBK-1 kinase respectively.
T1 sequence (Q9UHD2 whole entry): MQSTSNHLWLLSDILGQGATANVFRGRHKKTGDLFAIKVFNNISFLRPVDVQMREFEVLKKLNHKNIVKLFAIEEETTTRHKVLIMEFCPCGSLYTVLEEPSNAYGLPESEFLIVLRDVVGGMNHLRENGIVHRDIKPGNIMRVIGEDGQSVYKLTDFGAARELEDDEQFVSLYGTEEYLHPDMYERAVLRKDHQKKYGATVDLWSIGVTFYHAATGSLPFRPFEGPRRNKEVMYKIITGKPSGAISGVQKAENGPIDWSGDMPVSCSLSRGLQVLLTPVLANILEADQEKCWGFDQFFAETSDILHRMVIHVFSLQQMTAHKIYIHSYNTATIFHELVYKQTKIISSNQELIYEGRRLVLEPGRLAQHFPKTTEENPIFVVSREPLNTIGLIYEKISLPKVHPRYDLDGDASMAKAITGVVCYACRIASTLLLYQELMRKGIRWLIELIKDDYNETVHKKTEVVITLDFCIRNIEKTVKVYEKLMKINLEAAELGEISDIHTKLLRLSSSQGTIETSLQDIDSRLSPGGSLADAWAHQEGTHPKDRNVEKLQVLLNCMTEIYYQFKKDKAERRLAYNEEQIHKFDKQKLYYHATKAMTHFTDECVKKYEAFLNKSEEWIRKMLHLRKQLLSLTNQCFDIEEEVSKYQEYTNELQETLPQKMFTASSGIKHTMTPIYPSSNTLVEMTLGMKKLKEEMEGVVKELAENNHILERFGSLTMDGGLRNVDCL

`CC(=O)NC1CCN(c2ncc(-c3ccnc(Nc4ccc(CN5CCOCC5)nc4)n3)cc2C#N)C1` (stereo not given) and `N#Cc1cc(-c2ccnc(Nc3ccc(N)nc3)n2)cnc1N1CC[C@H](F)C1` cannot be ordered by IC50: < 1000 nM for the first, < 30 nM for the second.

`N#Cc1cc(-c2ccnc(Nc3ccc(CN4C(=O)OCC4CO)nc3)n2)cnc1N1CC[C@H](F)C1` (stereo not given in full) and `N#Cc1cc(-c2ccnc(Nc3cccc(C(=O)N4CCNCC4)c3)n2)cnc1N1CC[C@H](F)C1` cannot be ordered by IC50: < 30 nM for the first, < 30 nM for the second.

In the case of `N#Cc1cc(-c2nc(Nc3ccnc(NC(=O)CN4CCOCC4)c3)ncc2F)cnc1N1CC[C@H](F)C1`, the IC50 is reported as < 30 nM.

Source: ChEMBL document CHEMBL3886918, “Pyrimidine compounds useful in the treatment of diseases mediated by IKKE and/or TBK1 mechanisms” (2016)
